Patent publication US7205315B2, “Bicyclic imino acid derivatives as inhibitors of matrix metalloproteinases” (Sanofi-Aventis Deutschland GmbH, priority 2003, dated 2007)
Where a name gives a salt, the structure may show the parent alone.

Legend:
Type in all cases: biochemical
[1] = target: T1, catalytic domain of human neutrophilic collagenase (MMP-8) (Homo sapiens, UniProt P22894); experiment: Enzyme activity of the catalytic domain of neutrophilic collagenase (MMP-8), fluorogenic substrate; conditions: catalytic domain prepared as described by Ye et al., fluorescence 328/393 nm
T1 construct: of the catalytic domain of human stromelysin (MMP-3) and neutrophilic collagenase (MMP-8); made in house
Description: b) Preparation, and determination of the enzyme activity, of the catalytic domain of human stromelysin (MMP-3) and neutrophilic collagenase (MMP-8).
The two enzymes, i.e. stromelysin (MMP-3) and neutrophilic collagenase (MMP-8), were prepared as described by Ye et al. (Biochemistry; 31 (1992) pages 11231–11235). In order to measure the enzyme activity or the inhibitory effect on the enzyme, 10 μl of enzyme solution were incubated, for 15 minutes, with 10 μl of a 3% (v/v) buffered solution of dimethyl sulfoxide which contained the enzyme inhibitor, where appropriate. After 10 μl of a 3% (v/v) aqueous solution of dimethyl sulfoxide which contained 1 mmol of substrate/l had been added, the enzyme reaction was monitored by fluorescence spectroscopy (328 nm (ex)/393 nm(em)).
The enzyme activity is presented as increase in extinction/minute.
The buffer solution contained 0.05% Brij (Sigma, Deisenhofen, Germany) as well as 0.1 mol of tris/HCl/l, 0.1 mol of NaCl/l, 0.01 mol of CaCl2/l and 0.1 mol of piperazine-N,N′-bis[2-ethanesulfonic acid]/l (pH=7.5). The MMP-3 enzyme solution contained 2.3 μg, and the MMP-8 enzyme solution contained 0.6 μg, of one of the enzyme domains/ml prepared as described by Ye et al. The substrate solution contained 1 mmol of the fluorogenic substrate (7-methoxycoumarin-4-yl)acetyl-Pro-Leu-Gly-Leu-3-(2′,4′-dinitrophenyl)-L-2,3-diaminopropionyl-Ala-Arg-NH2/l (Bachem, Heidelberg, Germany).

[2] = target: T2, catalytic domain of human gelatinase B (MMP-9) (Homo sapiens, UniProt P14780); experiment: Enzyme activity of the catalytic domain of human gelatinase B (MMP-9), fluorogenic substrate; conditions: APMA-activated proenzyme, fluorescence 328/393 nm
T2 construct: enzyme activity of the catalytic domain of human gelatinase B (MMP-9); purchased Roche, Mannheim 1 758 896
Description: e) Determining the enzyme activity of the catalytic domain of human gelatinase B (MMP-9). […] Activation of the proenzyme:
(§1) 2 parts by volume of proenzyme were incubated, at 37° C. for 4 hours, with 1 part by volume of APMA solution. The APMA solution was prepared from a 10 mmol/l solution of p-aminophenylmercuric acetate in 0.1 mmol/l NaOH by diluting it with 3 parts by volume of tris/HCl buffer, pH 7.5 (see below). The pH was adjusted to between 7.0 and 7.5 by adding 1 mmol/l HCl. After the enzyme had been activated, it was diluted with the tris/HCl buffer to a concentration of 4.2 mU/ml.
In order to measure the activity of the enzyme, 10 μl of enzyme solution were incubated for 15 minutes with 10 μl of a 3% (v/v) buffered solution of dimethyl sulfoxide (reaction 1). In order to measure the enzyme inhibitor activity, 10 μl of enzyme solution were incubated with 10 μl of a 3% (v/v) buffered solution of dimethyl sulfoxide which contained the enzyme inhibitor (reaction 2). Both in the case of reaction 1 and in the case of reaction 2, the enzyme reaction was monitored by fluorescence spectroscopy (328 nm (extinction)/393 nm (emission)) after 10 ul of a 3% (v/v) aqueous solution of dimethyl sulfoxide, which contained 0.15 mmol of the substrate/l, had been added.
(§2) The enzyme activity was presented as increase in extinction/minute.
The inhibitory effect was calculated as percentage inhibition in accordance with the following formula: % inhibition=100−[(increase in extinction/minute in reaction 2)/(increase in extinction/minute in reaction 1)×100].
(§3) The IC50, that is the concentration of inhibitor which is required for 50% inhibition of the enzyme activity, was determined graphically by plotting the percentage inhibitions at different inhibitor concentrations.
The buffer solution contained 0.05% Brij (Sigma, Deisenhofen, Germany) and also 0.1 mol of tris/HCl/l, 0.1 mol of NaCl/l, 0.01 mol of CaCl2/l (pH=7.5). The enzyme solution contained 4.2 mU of the enzyme domain/ml. The substrate solution contained 0.15 mmol of the fluorogenic substrate (7-methoxycoumarin-4-yl)acetyl-Pro-Leu-Gly-Leu-3-(2′,4′-dinitrophenyl)-L-2,3-diaminopropionyl-Ala-Arg-NH2/ (Bachem, Heidelberg, Germany).

[3] = target: T3, catalytic domain of human collagenase-3 (MMP-13) (Homo sapiens, UniProt P45452); experiment: Enzyme activity of the catalytic domain of human collagenase-3 (MMP-13), fluorogenic substrate; conditions: APMA-activated proenzyme, fluorescence 328/393 nm
T3 construct: enzyme activity of the catalytic domain of human collagenase-3 (MMP-13); purchased INVITEK, Berlin 30 100 803
Description: c) Determining the enzyme activity of the catalytic domain of human collagenase-3 (MMP-13).
Activation of the proenzyme:
as §1, with “for 1.5” for “for 4”, “diluting the solution” for “diluting it”, “of 1.67 μg/ml.” for “of 4.2 mU/ml.”
In order to measure the enzyme activity, 10 μl of enzyme solution were incubated for 15 minutes with 10 μl of a 3% (v/v) buffered solution of dimethyl sulfoxide (reaction 1). In order to measure the enzyme inhibitor activity, 10 μl of enzyme solution were incubated with 10 μl of a 3% (v/v) buffered solution of dimethyl sulfoxide which contained the enzyme inhibitor (reaction 2).
Both in the case of reaction 1 and in the case of reaction 2, the enzyme reaction was monitored by fluorescence spectroscopy (328 nm (extinction)/393 nm (emission)) after 10 μl of a 3% (v/v) aqueous solution of dimethyl sulfoxide which contained 0.075 mmol of the substrate/1 had been added.
as §2
The effect of the inhibitor was calculated as a percentage inhibition in accordance with the following formula: % inhibition=100−[(increase in extinction/minute in reaction 2)/(increase in extinction/minute in reaction 1)×100].
as §3
The buffer solution contained 0.05% Brij (Sigma, Deisenhofen, Germany) and also 0.1 mol of tris/HCl/l, 0.1 mol of NaCl/l, 0.01 mol of CaCl2/l (pH=7.5). The enzyme solution contained 1.67 μg of the enzyme domain/ml. The substrate solution contained 0.075 mmol of the fluorogenic substrate (7-methoxycoumarin-4-yl)acetyl-Pro-Leu-Gly-Leu-3-(2′,4′-dinitrophenyl)-L-2,3-diaminopropionyl-Ala-Arg-NH2/1 (Bachem, Heidelberg, Germany).

T2 sequence (P14780 107-707 limits assumed): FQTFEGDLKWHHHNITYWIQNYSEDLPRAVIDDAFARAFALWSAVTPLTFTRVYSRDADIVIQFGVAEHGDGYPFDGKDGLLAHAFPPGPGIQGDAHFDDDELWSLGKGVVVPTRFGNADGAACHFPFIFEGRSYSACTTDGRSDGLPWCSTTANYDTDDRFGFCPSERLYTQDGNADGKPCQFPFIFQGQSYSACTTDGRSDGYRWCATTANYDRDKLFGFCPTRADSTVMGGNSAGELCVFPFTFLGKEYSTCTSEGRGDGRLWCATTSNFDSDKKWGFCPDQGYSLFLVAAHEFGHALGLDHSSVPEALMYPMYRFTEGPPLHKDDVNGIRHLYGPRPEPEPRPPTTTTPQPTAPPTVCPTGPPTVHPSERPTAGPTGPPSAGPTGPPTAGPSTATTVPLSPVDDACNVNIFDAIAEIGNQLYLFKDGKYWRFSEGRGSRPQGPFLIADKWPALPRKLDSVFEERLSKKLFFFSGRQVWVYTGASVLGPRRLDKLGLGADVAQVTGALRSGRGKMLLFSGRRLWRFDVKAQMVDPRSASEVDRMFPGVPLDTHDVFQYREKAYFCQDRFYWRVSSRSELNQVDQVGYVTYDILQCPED
T1 sequence (P22894 100-262 limits assumed): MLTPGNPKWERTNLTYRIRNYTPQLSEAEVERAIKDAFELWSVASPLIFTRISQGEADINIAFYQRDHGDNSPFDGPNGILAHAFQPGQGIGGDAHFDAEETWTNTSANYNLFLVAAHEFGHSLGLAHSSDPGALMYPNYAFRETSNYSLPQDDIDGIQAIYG

Row | IC50 [1] [nM] | IC50 [2] [nM] | IC50 [3] [nM] | SMILES
1 | 2000 | 4000 | 2300 | O=C(NO)[C@@H]1[C@@H]2CCCC[C@@H]2CCN1S(=O)(=O)c1ccc(-c2ccc(Cl)cc2)cc1 (single isomer, unassigned) [Example 15, 2-(4′-chlorobiphenyl-4-sulfonyl)decahydroisoquinoline-1-(N-hydroxy)-carboxamide]
2 | 2.5 | 1.2 | 1.8 | O=C(NO)C1C2CCCCC2CCN1S(=O)(=O)c1ccc(Oc2ccccc2)nc1 (stereo not drawn) [Example 5, 2-(6-phenoxypyridine-3-sulfonyl)decahydroisoquinoline-1-(N-hydroxy)-carboxamide trifluoroacetate]
3 | 22 | 12 | 21 | O=C(NO)C1C2CCCCC2CCN1S(=O)(=O)c1ccc(Oc2ccncc2)cc1 (stereo not drawn) [Example 9, 2-[4-(pyridin-4-yloxy)benzenesulfonyl]decahydroisoquinoline-1-(N-hydroxy)carboxamide trifluoroacetate]
4 | 10 | 5 | 3 | O=C(NO)C1C2CCCCC2CCN1S(=O)(=O)c1ccc(-c2ccc(OC(F)(F)F)cc2)cc1 (stereo not drawn) [Example 19, 2-(4′-trifluoromethoxybiphenyl-4-sulfonyl)decahydroisoquinoline-1-(N-hydroxy)carboxamide]
5 | 2.5 | 2 | 1.5 | COc1ccc(Oc2ccc(S(=O)(=O)N3CCC4CCCCC4C3C(=O)NO)cc2)cc1 (stereo not drawn) [Example 11, 2-[4-(4-methoxyphenoxy)benzenesulfonyl]decahydroisoquinoline-1-(N-hydroxy)carboxamide]
6 | 3 | 2 | 2 | O=C(NO)C1C2CCCCC2CCN1S(=O)(=O)c1ccc(Oc2ccc(F)cc2)cc1 (stereo not drawn) [Example 20, 2-[4-(4-fluorophenoxy)benzenesulfonyl]decahydroisoquinoline-1-(N-hydroxy)carboxamide]
7 | 3 | 100 | 3 | O=C(NO)C1C2CCCCC2CCN1S(=O)(=O)c1ccc(-c2ccc(Cl)cc2)cc1 (stereo not drawn) [Example 3, 2-(4′-chlorobiphenyl-4-sulfonyl)decahydroisoquinoline-1-(N-hydroxy)-carboxamide]
8 | 13 | 3 | 7 | O=C(NO)C1C2CCCCC2CCN1S(=O)(=O)CCc1ccc(-c2ccc(Cl)cc2)cc1 (stereo not drawn) [Example 7, 2-[2-(4′-chlorobiphenyl-4-yl)ethanesulfonyl]decahydroisoquinoline-1-(N-hydroxy)carboxamide]
9 | 9 | 2 | 2.1 | O=C(NO)C1C2CCCCC2CCN1S(=O)(=O)c1ccc(Oc2ccc(OC(F)(F)F)cc2)cc1 (stereo not drawn) [Example 23, 2-[4-(4-trifluoromethoxyphenoxy)benzenesulfonyl]decahydroisoquinoline-1-(N-hydroxy)carboxamide]
10 | 2.3 | 0.45 | 1.3 | O=C(NO)[C@H]1[C@H]2CCCC[C@H]2CCN1S(=O)(=O)c1ccc(Oc2ccc(F)cc2)cc1 [Example 21, 2-[4-(4-fluorophenoxy)benzenesulfonyl]decahydroisoquinoline-1-(N-hydroxy)carboxamide]
11 | 16 | 3 | 3 | N#Cc1ccc(Oc2ccc(S(=O)(=O)N3CCC4CCCCC4C3C(=O)NO)cc2)cc1 (stereo not drawn) [Example 26, 2-[4-(4-cyanophenoxy)benzenesulfonyl]decahydroisoquinoline-1-(N-hydroxy)carboxamide]
12 | 4 | 2 | 2 | O=C(NO)C1C2CCCCC2CCN1S(=O)(=O)c1ccc(Oc2ccc(OCC(F)(F)F)cc2)cc1 (stereo not drawn) [Example 13, 2-{4-[4-(2,2,2-trifluoroethoxy)phenoxy]benzenesulfonyl}decahydroisoquinoline-1-(N-hydroxy)carboxamide]
13 | 2.2 | 3.5 | 2 | O=C(NO)[C@H]1[C@H]2CCCC[C@H]2CCN1S(=O)(=O)c1ccc(-c2ccc(Cl)cc2)cc1 (single isomer, unassigned) [Example 14, 2-(4′-chlorobiphenyl-4-sulfonyl)decahydroisoquinoline-1-(N-hydroxy)-carboxamide]
